Experimental data as given in ChEMBL document CHEMBL5625215, “Antiproliferative activity of meso-substituted BODIPY photocages: Effect of electrophiles vs singlet oxygen” (Eur J Med Chem, 2023).
The source made the active and inactive calls. The calls are words filed in the database; no cut-off is given here.

What was measured:
NCI-H460 [1] = assay: Antiproliferative activity against human NCI-H460 cells assessed as inhibition of cell growth incubated for 72 hrs under photoirradiation with 6 cool white lamps for 15 mins at 4,28 and 52 hrs after compound addition by MTT assay; format: functional, cell-based; conditions: NCI-H460, light or radiation study
HCT-116 [2] = assay: Antiproliferative activity against human HCT-116 cells assessed as inhibition of cell growth incubated for 72 hrs under dark condition by MTT assay; format: functional, cell-based; conditions: HCT-116, 72 h
HCT-116 [3] = assay: Antiproliferative activity against human HCT-116 cells assessed as inhibition of cell growth incubated for 72 hrs under photoirradiation with 6 cool white lamps for 15 mins at 4,28 and 52 hrs after compound addition by MTT assay; format: functional, cell-based; conditions: HCT-116, light or radiation study
NCI-H460 [4] = assay: Antiproliferative activity against human NCI-H460 cells assessed as inhibition of cell growth incubated for 72 hrs under dark condition by MTT assay; format: functional, cell-based; conditions: NCI-H460, 72 h
MCF7 [5] = assay: Antiproliferative activity against human MCF7 cells assessed as inhibition of cell growth incubated for 72 hrs under dark condition by MTT assay; format: functional, cell-based; conditions: MCF7, 72 h
MCF7 [6] = assay: Antiproliferative activity against human MCF7 cells assessed as inhibition of cell growth incubated for 72 hrs under photoirradiation with 6 cool white lamps for 15 mins at 4,28 and 52 hrs after compound addition by MTT assay; format: functional, cell-based; conditions: MCF7, light or radiation study
[7] = Emission property of compound in CH3CN assessed as maximal wavelength by […]; format: physicochemical
HCT-116 [8] = assay: Induction of ROS generation in human HCT-116 cells assessed as increase in oxidative stress at 5 uM preincubated with compound for 1 hrs followed by photoirradiation with 6 cool white lamps by DCFH-DA staining based fluorescence analysis; format: functional, cell-based
[9] = Induction of singlet oxygen production in CH3CN assessed as singlet oxygen quantum yield at 450 nm under photoirradiation with visible light and measured after 15 to 60 sec by DPBF based assay; format: functional; conditions: time 15-60 sec
[10] = Absorption property of compound in CH3CN assessed as maximal wavelength by UV-vis spectrophotometer; format: physicochemical
[11] = Cytotoxicity against human HaCaT cells assessed as inhibition of cell growth incubated for 72 hrs under photoirradiation with 6 cool white lamps for 15 mins at 4,28 and 52 hrs after compound addition by MTT assay; format: toxicity, cell-based
[12] = Absorption property of compound in CH3CN assessed as maximal molar absorption coefficient by UV-vis spectrophotometer; format: physicochemical
[13] = Induction of singlet oxygen production in CH3CN assessed as decrease in fluorescence intensity at 450 nm under photoirradiation with visible light and measured after 30 sec by DPBF based assay relative to control; format: functional; set-up: scale not given: the % may be the effect or the level left
[14] = Cytotoxicity against HEK293T cells assessed as inhibition of cell growth incubated for 72 hrs under dark condition by MTT assay; format: toxicity, cell-based, HEK-293T; conditions: human
[15] = Induction of singlet oxygen production in CH3CN assessed as decrease in fluorescence intensity at 450 nm under photoirradiation with visible light and measured after 45 sec by DPBF based assay relative to control; format: functional; set-up: scale not given: the % may be the effect or the level left
HCT-116 [16] = assay: Induction of ROS generation in human HCT-116 cells at 5 uM incubated for 1 hrs under dark condition by DCFH-DA staining based fluorescence analysis; format: functional, cell-based
[17] = Induction of singlet oxygen production in CH3CN assessed as decrease in fluorescence intensity at 450 nm under photoirradiation with visible light and measured after 15 sec by DPBF based assay relative to control; format: functional; set-up: scale not given: the % may be the effect or the level left
[18] = Cytotoxicity against HEK293T cells assessed as inhibition of cell growth incubated for 72 hrs under photoirradiation with 6 cool white lamps for 15 mins at 4,28 and 52 hrs after compound addition by MTT assay; format: toxicity, cell-based, HEK-293T; conditions: human
[19] = Fluorescence property of compound in CH3CN assessed as fluorescence quantum yield by spectrofluorometric analysis; format: physicochemical
[20] = Induction of singlet oxygen production in CH3CN assessed as decrease in fluorescence intensity at 450 nm under photoirradiation with visible light and measured after 1 min by DPBF based assay relative to control; format: functional; set-up: scale not given: the % may be the effect or the level left
[21] = Cytotoxicity against human HaCaT cells assessed as inhibition of cell growth incubated for 72 hrs under dark condition by MTT assay; format: toxicity, cell-based

| Compound | IC50 (NCI-H460 [1]) [µM] | IC50 (HCT-116 [2]) [µM] | IC50 (HCT-116 [3]) [µM] | IC50 (NCI-H460 [4]) [µM] | IC50 (MCF7 [5]) [µM] | IC50 (MCF7 [6]) [µM] | Activity [7] [nm] | Activity [10] [nm] | Activity [12] [M⁻¹ cm⁻¹] | Activity [19] | also measured |
| --- | --- | --- | --- | --- | --- | --- | --- | --- | --- | --- | --- |
| CO[B-]1(C)n2c(C)c(I)c(C)c2C(COc2ccccc2CO)=C2C(C)=C(I)C(C)=[N+]21 (stereo not given) | ≤ 50 | 42 | 30 | 34 | 8 | 8 |  |  |  |  |  |
| COc1cccc(COC(C)=O)c1OCC1=C2C(C)=CC(C)=[N+]2[B-](C)(C)n2c(C)cc(C)c21 | 0.26 | ≥ 100 | 0.34 | ≥ 100 | 47 | 0.2 | 522 | 510 | 75178 | 0.27 | Activity (HCT-116 [8]): Active; Activity [9]: 0.1; IC50 at 72 h [11]: 0.6 µM; Activity [13]: 6.9%; IC50 at 72 h [14]: ≥ 100 µM; Activity [15]: 14.9%; Activity (HCT-116 [16]): inactive; Activity [17]: 1%; IC50 at 72 h [18]: 1.3 µM; Activity [20]: 20.2%; IC50 at 72 h [21]: > 100 µM |
| COc1cccc(CO)c1OCC1=C2C(C)=C(Br)C(C)=[N+]2[B-](C)(C)n2c(C)c(Br)c(C)c21 | 0.18 | 14 | 0.192 | 19 | 11 | 0.15 | 555 | 530 | 54912 | 0.04 |  |
| CO[B-]1(C)n2c(C)cc(C)c2C(COc2ccccc2COC(C)=O)=C2C(C)=CC(C)=[N+]21 (stereo not given) | 2 | 17 | 2.3 | 20 | 13 | 1.18 |  |  |  |  |  |
| COc1cccc(COC(C)=O)c1OCC1=C2C(C)=C(I)C(C)=[N+]2[B-](C)(C)n2c(C)c(I)c(C)c21 | 0.22 | > 100 | 0.176 | > 100 | > 100 | 0.13 | 545 | 535 | 58719 | 0.017 | Activity [9]: 0.78; IC50 at 72 h [11]: 0.2 µM; Activity [13]: 98.8%; IC50 at 72 h [14]: > 100 µM; Activity [15]: 100%; Activity [17]: 84.9%; IC50 at 72 h [18]: 0.2 µM; IC50 at 72 h [21]: > 100 µM |
| COc1cccc(COC(C)=O)c1OCC1=C2C(C)=C(Br)C(C)=[N+]2[B-](C)(OC)n2c(C)c(Br)c(C)c21 (stereo not given) | 16 | 24 | 6 | 48 | 15 | 2 |  |  |  |  |  |
| CC1=C(Br)C(C)=[N+]2C1=C(COc1ccccc1CO)c1c(C)c(Br)c(C)n1[B-]2(C)C | 0.6 | 26 | 0.4 | 69 | 17 | 0.23 | 557 | 531 | 42810 | 0.04 |  |
| CO[B-]1(C)n2c(C)c(Br)c(C)c2C(COc2ccccc2CO)=C2C(C)=C(Br)C(C)=[N+]21 (stereo not given) | 17 | > 100 | 14 | > 100 | 27 | 6 |  |  |  |  |  |
| CC(=O)OCc1ccccc1OCC1=C2C(C)=C(I)C(C)=[N+]2[B-](C)(C)n2c(C)c(I)c(C)c21 | 0.25 | ≥ 100 | 0.18 | ≥ 100 | 63 | 0.17 | 565 | 537 | 37520 | 0.005 |  |
| COc1cccc(CO)c1OCC1=C2C(C)=CC(C)=[N+]2[B-](C)(C)n2c(C)cc(C)c21 | 0.24 | 12 | 0.38 | 16 | 15 | 0.2 | 521 | 510 | 109069 | 0.33 | Activity (HCT-116 [8]): Active; Activity (HCT-116 [16]): inactive |
| COc1cccc(CO)c1OCC1=C2C(C)=C(I)C(C)=[N+]2[B-](C)(C)n2c(C)c(I)c(C)c21 | 0.15 | 13 | 0.15 | 31 | 12 | 0.1 | 560 | 535 | 65694 | 0.012 |  |
| CC(=O)OCc1ccccc1OCC1=C2C(C)=CC(C)=[N+]2[B-](C)(C)n2c(C)cc(C)c21 | 0.19 | 33 | 0.21 | 83 | 27 | 0.2 | 521 | 510 | 146706 | 0.28 | Activity (HCT-116 [8]): Active; Activity [9]: 0.1; Activity [13]: 12.9%; Activity [15]: 21.1%; Activity (HCT-116 [16]): inactive; Activity [17]: 4.9%; Activity [20]: 32.3% |
| CC1=CC(C)=[N+]2C1=C(C=O)c1c(C)cc(C)n1[B-]2(C)C | 61 | 49 | 40 | > 100 | 20 | 15 |  |  |  |  |  |
| CC(=O)OCC1=C2C(C)=CC(C)=[N+]2[B-](F)(F)n2c(C)cc(C)c21 |  |  |  |  |  |  | 528 | 517 | 99848 | 0.99 |  |
| CC1=CC(C)=[N+]2C1=C(COc1ccccc1CO)c1c(C)cc(C)n1[B-]2(C)C | 0.13 | 13 | 0.15 | 16.1 | 14 | 0.2 | 527 | 510 | 87209 | 0.33 | Activity (HCT-116 [8]): Active; Activity [9]: 0.1; Activity [13]: 8.8%; Activity [15]: 18.9%; Activity (HCT-116 [16]): inactive; Activity [17]: 1.1%; Activity [20]: 26.9% |
| CC1=C(I)C(C)=[N+]2C1=C(COc1ccccc1CO)c1c(C)c(I)c(C)n1[B-]2(C)C | 0.18 | 37 | 0.13 | 53 | 27 | 0.13 | 560 | 537 | 41143 | 0.005 |  |
| CO[B-]1(C)n2c(C)c(I)c(C)c2C(COc2ccccc2COC(C)=O)=C2C(C)=C(I)C(C)=[N+]21 (stereo not given) | 1.3 | > 100 | 1.7 | > 100 | 27 | 0.7 |  |  |  |  |  |
